Laboratory results taken from paper PMC7077986, “Molecular basis for catabolism of the abundant metabolite trans-4-hydroxy-L-proline by a microbial glycyl radical enzyme” (eLife, 2020).

Experiments:
[1] = biological target: T1, HypD (trans-4-hydroxy-L-proline dehydratase; CdHypD) (Clostridioides difficile, UniProt A0A031WDE4); experiment: X-ray crystal structure, […] Å; assay type: binding; settings: unactivated enzyme; active site; 4 mM Hyp in crystallization buffer, 100 mM Hyp in cryoprotectant, pH 7.5, 21 °C
T1 construct: gene pflD; full length, N-terminal hexahistidine tag (pET28a-CdHypD), E. coli BL21-CodonPlus(DE3)-RIL (delta proC for assays); dimeric; for activity the Gly765 radical was installed by HypD-AE
T1 sequence (A0A031WDE4 1-789): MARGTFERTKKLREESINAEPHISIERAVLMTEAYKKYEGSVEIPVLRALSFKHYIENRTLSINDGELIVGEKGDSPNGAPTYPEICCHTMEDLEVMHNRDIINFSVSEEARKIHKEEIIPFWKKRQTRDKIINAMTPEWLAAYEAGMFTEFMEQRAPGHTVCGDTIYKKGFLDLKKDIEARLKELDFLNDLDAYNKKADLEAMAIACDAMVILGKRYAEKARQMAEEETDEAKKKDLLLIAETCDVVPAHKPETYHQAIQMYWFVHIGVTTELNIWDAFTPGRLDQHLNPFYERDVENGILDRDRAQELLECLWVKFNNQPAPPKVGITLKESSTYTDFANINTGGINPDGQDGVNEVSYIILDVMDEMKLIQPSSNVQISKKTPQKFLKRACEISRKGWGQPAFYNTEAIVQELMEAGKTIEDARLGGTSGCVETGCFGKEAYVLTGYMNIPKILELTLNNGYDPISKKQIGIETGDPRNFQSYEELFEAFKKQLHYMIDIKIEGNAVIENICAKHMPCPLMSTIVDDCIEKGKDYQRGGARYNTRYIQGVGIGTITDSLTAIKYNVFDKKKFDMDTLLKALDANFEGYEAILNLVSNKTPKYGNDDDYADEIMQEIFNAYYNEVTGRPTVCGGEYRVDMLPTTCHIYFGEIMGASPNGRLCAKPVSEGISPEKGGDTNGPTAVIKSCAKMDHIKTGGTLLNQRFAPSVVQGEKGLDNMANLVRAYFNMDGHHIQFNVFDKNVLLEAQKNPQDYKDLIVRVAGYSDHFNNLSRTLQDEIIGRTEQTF

[2] = biological target: the molecule itself; experiment: crystal structure; unactivated wild-type HypD with intact N-terminal hexahistidine tag, crystallised aerobically, hanging drop, 21°C, 14% PEG 3350, 100 mM KCl, 100 mM HEPES pH 7.5; glycerol-bound (2.05 Å) and Hyp-bound (2.52 Å) crystals; eight chains in the asymmetric unit

In the case of O=C(O)[C@@H]1C[C@@H](O)CN1 [Hyp], the “X-ray crystal structure, 2.52 Å” value [1] is reported as “In the active site of the Hyp-bound HypD structure, electron density was observed for the substrate”.

B1: trans-4-hydroxy-L-proline dehydratase (HypD) from Clostridioides difficile 70-100-2010, wild type, unactivated (enzyme)
chain: T1 sequence (A0A031WDE4 1-789)
notes: HypD (trans-4-hydroxy-L-proline dehydratase), glycyl radical enzyme, gene amplified from C. difficile 70-100-2010 genomic DNA; UniProt A0A031WDE4; all residues other than the hexahistidine tag are seen in the structures; Crystallised with the N-terminal hexahistidine tag intact; also called Hyp dehydratase; CdHypD; source: E. coli BL21-CodonPlus(DE3)-RIL, pET28a-CdHypD, purified (Ni-NTA); not …
In the case of B1, the “stoichiometry N” value [2] is reported as 2.
